Experimental data taken from PubChem BioAssay (NCI).
“And” between values parts separate entries of the source, which are not always exact repeats. Equal values may be shown once.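 The compound was tested at five concentrations on cells cultured in 96-well plates, with a 48-hour exposure period. GI50 is the concentration that inhibits growth by half. The concentration for full growth arrest is given as TGI.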

Assays:
Assay in all cases: inhibition of tumour cell growth, NCI panel, 48 h
A498 renal = system: A498 renal
CAKI-1 renal = system: CAKI-1 renal
CCRF-CEM leukemia = system: CCRF-CEM leukemia
EKVX NSCLC = system: EKVX NSCLC
HOP-92 NSCLC = system: HOP-92 NSCLC
HS 578T breast = system: HS 578T breast
LOX IMVI melanoma = system: LOX IMVI melanoma
NCI-H522 lung = system: NCI-H522 lung
OVCAR-4 ovarian = system: OVCAR-4 ovarian
PC-3 prostate = system: PC-3 prostate

Compound	GI50 (A498 renal) [nM]	TGI (A498 renal)	GI50 (CAKI-1 renal) [nM]	TGI (CAKI-1 renal)	GI50 (CCRF-CEM leukemia) [nM]	TGI (CCRF-CEM leukemia)	GI50 (EKVX NSCLC) [µM]	TGI (EKVX NSCLC)	GI50 (HOP-92 NSCLC) [nM]	TGI (HOP-92 NSCLC)	GI50 (HS 578T breast) [µM]	TGI (HS 578T breast) [µM]	GI50 (LOX IMVI melanoma) [nM]	TGI (LOX IMVI melanoma)	GI50 (NCI-H522 lung) [nM]	TGI (NCI-H522 lung)	GI50 (OVCAR-4 ovarian) [µM]	TGI (OVCAR-4 ovarian)	GI50 (PC-3 prostate) [µM]	TGI (PC-3 prostate) [µM]
NS(=O)(=O)c1ccc(Nc2cc(-c3ccc(O)c(F)c3)[nH]n2)cc1	> 25000	> 25 µM	> 25000	> 25 µM	13500	> 25 µM	> 25	> 25 µM	> 18300	> 25 µM	7.28	> 25	> 25000	> 25 µM	13900	> 25 µM	8.8	> 25 µM	> 25	> 25
COc1cccc2c1-c1nc(N)c3c(OC)cccc3c1C2=O		> 100 µM		> 100 µM		> 100 µM		> 100 µM		> 100 µM		52.3		> 100 µM		> 100 µM		> 100 µM		> 100
O=C1NC(=S)S/C1=C\c1cn(-c2ccccc2)nc1-c1ccccc1	2990	18.2 µM	7140	51.8 µM	2500	69.8 µM	3.03	23.6 µM	623	5.34 µM	6.03	43.6	10000	55.4 µM	2960	55.1 µM	8.14	> 100 µM	5.66	> 100
C[C@@]1([C@H](OC(=O)c2ccccc2)C(N)=O)CO1	33800	88.3 µM	10700	31.5 µM	19700	> 100 µM	24.2	62.4 µM	14800	42.1 µM	34.4	92.7	4210	24.5 µM	22200	76.5 µM	37.6	> 100 µM	16.6	52.1
CN1CCN(CC(=O)N(C)c2ccc(N=C(c3ccccc3)c3c(O)[nH]c4ccc(C#N)cc34)cc2)CC1	176	2.46 µM	1260	8.96 µM	1200	12.5 µM	5.27	19.7 µM	3360	20.8 µM	0.0938	2.09	1080	2.58 µM	5290	22.4 µM	3.03	14 µM	2.37	17
C#Cc1cccc(Nc2ncnc3cc(NC(=O)CCl)ccc23)c1	2770	7.28 µM	1780	6.06 µM	626	2.7 µM	2.5	7.01 µM	3560	8.09 µM	3.71	14.2	740	2.97 µM	414	0.894 µM	2.16	6.95 µM	3.69	8.33
Oc1ccc(Br)cc1C=Nc1cccc(C(F)(F)F)c1		> 100 µM		> 100 µM		28.5 µM		> 100 µM		> 100 µM		83.3		> 100 µM		> 100 µM		> 100 µM		33.3
COc1ccc(C(O)c2cc3c(N)c(C(=O)Nc4ccc(Cl)cc4)sc3nc2C)cc1 (stereo not drawn)	3000	12.4 µM	2790	15.6 µM	2470	> 100 µM	3.88	30.7 µM	2370	18.3 µM	1.82	5.3	2080	13.2 µM	4050	38.1 µM	2.42	7.47 µM	3.27	22.2
O=C1CC2OCC=C3CN4CCC56c7ccccc7N1C5C2C3CC46O (stereo not drawn)		> 100 µM		> 100 µM		> 100 µM		> 100 µM		> 100 µM		> 100		> 100 µM		> 100 µM		> 100 µM		> 100
COc1cc2cc(Oc3ccc(NC(=O)Nc4cc(C(F)(F)F)cc(C(F)(F)F)c4)cc3)c(C)nc2cc1OCCN1CCOCC1	1800	6.69 µM	1470	5.68 µM	1410	6.57 µM	1.64	6.68 µM	900	2.71 µM	1.56	7	1460	5.09 µM	1630	7.29 µM	1.88	6.95 µM	1.18	5.16
Clc1nccc2c(-c3csc(-c4c[nH]c5ccc(Br)cc45)n3)c[nH]c12	1560	4.84 µM	1960	8.04 µM	3160	20.9 µM	3.11	12.4 µM	2430	6.81 µM	3.7	17.8	1630	3.25 µM	2280	6.86 µM	3.25	15.9 µM	3.86	14
O=C(CS(=O)(=O)c1nc2ccccc2nc1-c1ccccc1)Nc1ccc(F)cc1	21600	> 100 µM	> 100000	> 100 µM	3150	18.8 µM	> 100	> 100 µM	22300	> 100 µM	29.7	94.3	36700	> 100 µM	48200	> 100 µM	21.6	49.4 µM	26	> 100
COc1ccc(-c2cc(=O)c3c(O)c(OC)c(OC)c(OC)c3o2)cc1OC		> 100 µM		> 100 µM		> 100 µM		> 100 µM		28 µM		81.8		> 100 µM		43.9 µM		> 100 µM		> 100
CCN(CC)c1ccc(/C=C/C(=O)c2ccc(Nc3nc(Nc4ccccc4)nc(Nc4ccccc4)n3)cc2)cc1	7440	48 µM	5170	38 µM	3150	> 100 µM	4.07	> 100 µM	31.6	4.84 µM	4.04	69.5	6870	> 100 µM	5940	> 100 µM	32.3	> 100 µM	3.2	18.6
c1ccc(-c2oc(-c3ccccc3)c(CN3CCCCC3)c2CN2CCCCC2)cc1	2410	11.8 µM	4810	18.7 µM	2540	9.97 µM	2.99	14.2 µM	1480	5.89 µM	3.14	15.8	3190	12.1 µM	2470	11.7 µM	2.65	13.6 µM	2.34	7.73
COc1cc2oc(-c3cccc(C(=O)Nc4ccc(Cl)cc4)c3)cc(=O)c2c(OC)c1OC	2000	7.82 µM	1790	7.84 µM	2280	> 100 µM	2.43	> 100 µM	1460	5.58 µM	2.95	> 100	413	> 100 µM	1730	> 100 µM	3.05	> 100 µM	3.4	> 100
COc1cc(/C=C2\C(=O)N(Cc3ccc(Cl)cc3)c3ccccc32)cc(OC)c1OC	1540	7.97 µM	2920	13.8 µM	1410	4.82 µM	4.15	34.6 µM	1640	5.74 µM	1.65	11.1	1590	3 µM	2200	5.93 µM	4.35	> 49.6 µM	2.43	17.2
COC(=O)NC1C(C)OC(OC2C/C=C(/C)C3C=CC4C(OC5CC(OC6CCC(OC7CC(O)C(OC8CCC(O)C(C)O8)C(C)O7)C(C)O6)C(OC(C)=O)C(C)O5)C(C)CC(C)C4C3(C)/C(O)=C3/C(=O)OC4(CC(C=O)=CC(O)C4/C=C\2C)C3=O)CC1(C)[N+](=O)[O-] (stereo not drawn)	199	1.65 µM and 0.508 µM	1050	7.08 µM and 3.27 µM	68.7	4.86 µM and 1.78 µM	0.367	5.49 µM and 0.864 µM	908	2.69 µM and 3.32 µM		3.76	281	1.32 µM and 0.808 µM	222	2.8 µM and 0.645 µM	1.56	7.26 µM and 4.66 µM		7.29
Oc1ccc(Cl)cc1C(c1cc(Cl)ccc1O)C(Cl)(Cl)Cl	1670	3.53 µM	1970	6.06 µM	3200	8.02 µM	1.84	5.8 µM	2280	5.44 µM	1.81	4.45	1660	3.22 µM	1870	5.44 µM	2.71	10.7 µM	1.79	4.76
